Test system: MV-4-11 cells
Assay: Gene expression microarray analysis (Affymetrix PrimeView) and GSEA
Assay type: cell-based, human
Design: RFU PODN (11730768_x_at) / Fold change /veh PODN (11730768_x_at) / RFU LINC00158 (11744669_a_at) / Fold change /veh LINC00158 (11744669_a_at) / RFU DUSP10 (11751237_a_at) / Fold change /veh DUSP10 (11751237_a_at) / RFU ID3 (11757404_x_at) / Fold change /veh ID3 (11757404_x_at) / RFU PLEKHG5 (11737974_s_at) / Fold change /veh PLEKHG5 (11737974_s_at) / RFU LRRC4B (11730491_at) / Fold change /veh LRRC4B (11730491_at) / RFU GIMAP4 (11747438_a_at) / Fold change /veh GIMAP4 (11747438_a_at) / RFU KRT8 (11758183_x_at) / Fold change /veh KRT8 (11758183_x_at) / RFU CNN1 (11734310_a_at) / Fold change /veh CNN1 (11734310_a_at) / RFU VPS37D (11726825_at) / Fold change /veh VPS37D (11726825_at) / RFU C10orf10 (11716522_x_at) / Fold change /veh C10orf10 (11716522_x_at) / RFU KIR2DL2 /// KIR2DL4 /// KIR2DL5A /// KIR2DL5B /// KIR2DS1 /// KIR2DS2 /// KIR2DS3 /// KIR2DS4 /// KIR3DL3 /// KIR3DL3 /// KIR3DS1 (11738374_at) / Fold change /veh KIR2DL2 /// KIR2DL4 /// KIR2DL5A /// KIR2DL5B /// KIR2DS1 /// KIR2DS2 /// KIR2DS3 /// KIR2DS4 /// KIR3DL3 /// KIR3DL3 /// KIR3DS1 (11738374_at) / RFU C1QL1 (11718748_at) / Fold change /veh C1QL1 (11718748_at) / RFU TMPRSS4 (11747572_a_at) / Fold change /veh TMPRSS4 (11747572_a_at) / RFU HAMP (11756126_x_at) / Fold change /veh HAMP (11756126_x_at) / RFU RNFT2 (11725882_a_at) / Fold change /veh RNFT2 (11725882_a_at) / RFU NR4A2 (11747474_a_at) / Fold change /veh NR4A2 (11747474_a_at) / RFU ABCC12 (11746883_a_at) / Fold change /veh ABCC12 (11746883_a_at) / RFU TMEM136 (11760407_x_at) / Fold change /veh TMEM136 (11760407_x_at) / RFU CLDN22 /// WWC2 (11732394_at) / Fold change /veh CLDN22 /// WWC2 (11732394_at) / RFU HLA-DPB1 (11760878_x_at) / Fold change /veh HLA-DPB1 (11760878_x_at) / RFU SPINT1 (11716480_a_at) / Fold change /veh SPINT1 (11716480_a_at) / RFU GAP43 (11754022_s_at) / Fold change /veh GAP43 (11754022_s_at) / RFU A4GNT (11735810_at) / Fold change /veh A4GNT (11735810_at) / RFU PRB3 (11715151_x_at) / Fold change /veh PRB3 (11715151_x_at) / RFU TUBB4B (11761932_at) / Fold change /veh TUBB4B (11761932_at) / RFU CAPN14 (11732068_a_at) / Fold change /veh CAPN14 (11732068_a_at) / RFU TMCC2 (11721928_a_at) / Fold change /veh TMCC2 (11721928_a_at) / RFU IRGQ (11745062_a_at) / Fold change /veh IRGQ (11745062_a_at) / RFU FAM174B (11720279_a_at) / Fold change /veh FAM174B (11720279_a_at) / RFU TMPRSS4 (11748680_a_at) / Fold change /veh TMPRSS4 (11748680_a_at) / RFU FAM212B (11763350_a_at) / Fold change /veh FAM212B (11763350_a_at) / RFU PLEKHG5 (11743358_a_at) / Fold change /veh PLEKHG5 (11743358_a_at) / RFU ZSCAN30 (11745921_a_at) / Fold change /veh ZSCAN30 (11745921_a_at) / RFU CMKLR1 (11741424_a_at) / Fold change /veh CMKLR1 (11741424_a_at) / RFU LOC101060620 /// MAPK8IP1 (11723275_at) / Fold change /veh LOC101060620 /// MAPK8IP1 (11723275_at) / RFU SPTSSB (11747773_x_at) / Fold change /veh SPTSSB (11747773_x_at) / RFU PRSS12 (11739890_at) / Fold change /veh PRSS12 (11739890_at) / RFU BIN1 (11741810_x_at) / Fold change /veh BIN1 (11741810_x_at) / RFU WNT11 (11732464_a_at) / Fold change /veh WNT11 (11732464_a_at) / RFU C10orf10 (11716521_a_at) / Fold change /veh C10orf10 (11716521_a_at) / RFU C5orf56 (11738089_at) / Fold change /veh C5orf56 (11738089_at) / RFU CYB561 (11721691_x_at) / Fold change /veh CYB561 (11721691_x_at) / RFU ANKRD19P (11752326_a_at) / Fold change /veh ANKRD19P (11752326_a_at) / RFU OR2T12 /// OR2T33 /// OR2T8 (11738714_s_at) / Fold change /veh OR2T12 /// OR2T33 /// OR2T8 (11738714_s_at) / RFU VCAN (11748164_a_at) / Fold change /veh VCAN (11748164_a_at) / RFU JSRP1 (11732532_at) / Fold change /veh JSRP1 (11732532_at) / RFU KRTAP10-11 (11738290_x_at) / Fold change /veh KRTAP10-11 (11738290_x_at) / RFU MYO3A (11730013_a_at) / Fold change /veh MYO3A (11730013_a_at) / RFU EBF3 (11725865_a_at) / Fold change /veh EBF3 (11725865_a_at) / RFU CAMK2N1 (11719241_x_at) / Fold change /veh CAMK2N1 (11719241_x_at) / RFU C5orf56 (11738088_a_at) / Fold change /veh C5orf56 (11738088_a_at) / RFU OLFML3 (11715873_a_at) / Fold change /veh OLFML3 (11715873_a_at) / RFU LOC100653217 /// NTM (11731650_a_at) / Fold change /veh LOC100653217 /// NTM (11731650_a_at) / RFU MAPK11 (11762145_a_at) / Fold change /veh MAPK11 (11762145_a_at) / RFU FIZ1 (11724087_x_at) / Fold change /veh FIZ1 (11724087_x_at) / RFU OASL (11726364_x_at) / Fold change /veh OASL (11726364_x_at) / RFU SOX15 (11748057_x_at) / Fold change /veh SOX15 (11748057_x_at) / RFU CD79A (11719716_a_at) / Fold change /veh CD79A (11719716_a_at) / RFU HIST1H1D (11736915_at) / Fold change /veh HIST1H1D (11736915_at) / RFU CASKIN2 (11723855_a_at) / Fold change /veh CASKIN2 (11723855_a_at) / RFU LOC730098 (11760151_x_at) / Fold change /veh LOC730098 (11760151_x_at) / RFU OR4N2 (11742367_at) / Fold change /veh OR4N2 (11742367_at) / RFU PRRT2 (11749266_a_at) / Fold change /veh PRRT2 (11749266_a_at) / RFU SNX32 (11753110_a_at) / Fold change /veh SNX32 (11753110_a_at) / RFU CDHR5 (11726645_a_at) / Fold change /veh CDHR5 (11726645_a_at) / RFU RCAN1 (11760418_a_at) / Fold change /veh RCAN1 (11760418_a_at) / RFU FAM167A (11723789_a_at) / Fold change /veh FAM167A (11723789_a_at) / RFU FAM26E (11764081_at) / Fold change /veh FAM26E (11764081_at) / RFU ISYNA1 (11749810_s_at) / Fold change /veh ISYNA1 (11749810_s_at) / RFU ACY1 (11761880_at) / Fold change /veh ACY1 (11761880_at) / RFU 11764098_at / Fold change /veh 11764098_at / RFU SAMD14 (11745864_x_at) / Fold change /veh SAMD14 (11745864_x_at) / RFU NPB (11741838_a_at) / Fold change /veh NPB (11741838_a_at) / RFU TMPRSS6 (11731388_a_at) / Fold change /veh TMPRSS6 (11731388_a_at) / RFU KRTAP10-2 (11738614_at) / Fold change /veh KRTAP10-2 (11738614_at) / RFU ARHGAP8 /// PRR5-ARHGAP8 (11727945_x_at) / Fold change /veh ARHGAP8 /// PRR5-ARHGAP8 (11727945_x_at) / RFU KRTAP5-7 /// NADSYN1 (11734609_at) / Fold change /veh KRTAP5-7 /// NADSYN1 (11734609_at) / RFU RASL12 (11751679_a_at) / Fold change /veh RASL12 (11751679_a_at) / RFU CDKN2B (11736163_a_at) / Fold change /veh CDKN2B (11736163_a_at) / RFU PRF1 (11729649_at) / Fold change /veh PRF1 (11729649_at) / RFU, ZNF638 /// ZNF638-IT1 / Fold change vs veh, ZNF638 /// ZNF638-IT1 / RFU, PANK3 / Fold change vs veh, PANK3 / RFU, SH3YL1 / Fold change vs veh, SH3YL1 / RFU, ZEB2 / Fold change vs veh, ZEB2 / RFU, NRIP1 / Fold change vs veh, NRIP1 / RFU, PTTG1IP / Fold change vs veh, PTTG1IP / RFU, CAPN2 / Fold change vs veh, CAPN2 / RFU, MED14 / Fold change vs veh, MED14 / RFU, SNORA58 / Fold change vs veh, SNORA58 / RFU, C1orf63 / Fold change vs veh, C1orf63 / RFU, LRRFIP1 / Fold change vs veh, LRRFIP1 / RFU, NDUFAF7 / Fold change vs veh, NDUFAF7 / RFU, SLC12A2 / Fold change vs veh, SLC12A2 / RFU, IBTK / Fold change vs veh, IBTK / RFU, ESF1 / Fold change vs veh, ESF1 / Fold change vs veh, TMEM50B / RFU, TAOK1 / Fold change vs veh, TAOK1 / RFU, ACBD3 / Fold change vs veh, ACBD3 / RFU, TMA16 / Fold change vs veh, TMA16 / RFU, RWDD3 / Fold change vs veh, RWDD3 / RFU, BCAT1 / Fold change vs veh, BCAT1 / RFU, EDEM3 / Fold change vs veh, EDEM3 / RFU, TMEM33 / Fold change vs veh, TMEM33 / RFU, WDR75 / Fold change vs veh, WDR75 / RFU, AHCTF1 / Fold change vs veh, AHCTF1 / RFU, TFRC / Fold change vs veh, TFRC / RFU, ZDHHC17 / Fold change vs veh, ZDHHC17 / RFU, NOM1 / Fold change vs veh, NOM1 / RFU, ARL8B / Fold change vs veh, ARL8B / RFU, ZBTB11 / Fold change vs veh, ZBTB11 / RFU, TAMM41 / Fold change vs veh, TAMM41 / RFU, KIAA1704 /// LOC100996395 / Fold change vs veh, KIAA1704 /// LOC100996395 / RFU, ING1 / Fold change vs veh, ING1 / RFU, TRMT61B / Fold change vs veh, TRMT61B / RFU, FUBP3 / Fold change vs veh, FUBP3 / RFU, TP53 / Fold change vs veh, TP53 / RFU, TNKS2 / Fold change vs veh, TNKS2 / RFU, ZFP14 / Fold change vs veh, ZFP14 / RFU, ACTR2 / Fold change vs veh, ACTR2 / RFU, PPP3R1 / Fold change vs veh, PPP3R1 / RFU, PIK3R1 / Fold change vs veh, PIK3R1 / RFU, HNRNPA1 / Fold change vs veh, HNRNPA1 / RFU, RNF170 / Fold change vs veh, RNF170 / RFU, ZNF28 / Fold change vs veh, ZNF28 / RFU, RNGTT / Fold change vs veh, RNGTT / RFU, OGT / Fold change vs veh, OGT / RFU, BRD1 / Fold change vs veh, BRD1 / RFU, MARS / Fold change vs veh, MARS / RFU, ZNF655 / Fold change vs veh, ZNF655 / RFU, FAHD1 / Fold change vs veh, FAHD1 / RFU, BDP1 / Fold change vs veh, BDP1 / RFU, LRRCC1 / Fold change vs veh, LRRCC1 / RFU, ARID1A / Fold change vs veh, ARID1A / RFU, ZNF146 / Fold change vs veh, ZNF146 / RFU, ZNF330 / Fold change vs veh, ZNF330 / RFU, GPN3 / Fold change vs veh, GPN3 / RFU, C9orf123 / Fold change vs veh, C9orf123 / RFU, N4BP2L2 / Fold change vs veh, N4BP2L2 / RFU, ARFIP1 / Fold change vs veh, ARFIP1 / RFU, FAM179B / Fold change vs veh, FAM179B / RFU, BCL10 / Fold change vs veh, BCL10 / RFU, UHRF1BP1L / Fold change vs veh, UHRF1BP1L / RFU, BET1 / Fold change vs veh, BET1 / RFU, CNOT2 / Fold change vs veh, CNOT2 / RFU, ZNF268 / Fold change vs veh, ZNF268 / Fold change vs veh, ZNF507 / RFU, DGCR2 / Fold change vs veh, DGCR2 / RFU, WDSUB1 / Fold change vs veh, WDSUB1 / Fold change vs veh, HSP90B1 /// MIR3652 / RFU, ADSS / Fold change vs veh, ADSS / RFU, GK / Fold change vs veh, GK / RFU, ZNF148 / Fold change vs veh, ZNF148 / RFU, TAF9 / Fold change vs veh, TAF9 / RFU, SLC1A5 / Fold change vs veh, SLC1A5 / RFU, SLMO2 / Fold change vs veh, SLMO2 / RFU, ABCC4 / Fold change vs veh, ABCC4 / RFU, LOC101060439 /// RAP1B / Fold change vs veh, LOC101060439 /// RAP1B / RFU, RFX7 / Fold change vs veh, RFX7 / RFU, GTPBP10 / Fold change vs veh, GTPBP10 / RFU, CNEP1R1 / Fold change vs veh, CNEP1R1 / RFU, BIVM-ERCC5 /// ERCC5 / Fold change vs veh, BIVM-ERCC5 /// ERCC5 / RFU, ILF3 / Fold change vs veh, ILF3 / RFU 11762660_at / Fold change /veh 11762660_at / RFU VCAN (11757783_s_at) / Fold change /veh VCAN (11757783_s_at) / RFU DDX43 (11728927_at) / Fold change /veh DDX43 (11728927_at) / RFU KRT8 (11758188_x_at) / Fold change /veh KRT8 (11758188_x_at) / RFU NKD1 (11759106_at) / Fold change /veh NKD1 (11759106_at) / RFU SRD5A1 (11742802_a_at) / Fold change /veh SRD5A1 (11742802_a_at) / RFU TPSAB1 /// TPSB2 (11721975_s_at) / Fold change /veh TPSAB1 /// TPSB2 (11721975_s_at) / RFU GSTM3 (11746129_a_at) / Fold change /veh GSTM3 (11746129_a_at) / RFU IL23R (11737362_x_at) / Fold change /veh IL23R (11737362_x_at) / RFU TMEM51 (11727254_a_at) / Fold change /veh TMEM51 (11727254_a_at) / RFU PIWIL2 (11732686_x_at) / Fold change /veh PIWIL2 (11732686_x_at) / RFU ORM1 (11744905_x_at) / Fold change /veh ORM1 (11744905_x_at) / RFU CCDC152 (11743942_at) / Fold change /veh CCDC152 (11743942_at) / RFU ECM1 (11717891_a_at) / Fold change /veh ECM1 (11717891_a_at) / RFU IL23R (11748794_a_at) / Fold change /veh IL23R (11748794_a_at) / RFU TNFAIP8L3 (11732012_x_at) / Fold change /veh TNFAIP8L3 (11732012_x_at) / RFU MBOAT4 (11741988_at) / Fold change /veh MBOAT4 (11741988_at) / RFU 11764193_at / Fold change /veh 11764193_at / RFU TMEM53 (11763286_at) / Fold change /veh TMEM53 (11763286_at) / RFU MAGEB2 (11727129_at) / Fold change /veh MAGEB2 (11727129_at) / RFU TMEM200A (11744735_a_at) / Fold change /veh TMEM200A (11744735_a_at) / RFU CCDC152 (11751479_a_at) / Fold change /veh CCDC152 (11751479_a_at) / RFU FAM211A (11726209_a_at) / Fold change /veh FAM211A (11726209_a_at) / RFU RGS16 (11746705_a_at) / Fold change /veh RGS16 (11746705_a_at) / RFU VCAN (11755009_s_at) / Fold change /veh VCAN (11755009_s_at) / RFU RHOB (11743442_s_at) / Fold change /veh RHOB (11743442_s_at) / RFU RGS16 (11720943_a_at) / Fold change /veh RGS16 (11720943_a_at) / RFU RGS16 (11720944_at) / Fold change /veh RGS16 (11720944_at) / RFU, VPS4B / Fold change vs veh, VPS4B / RFU, CREB1 / Fold change vs veh, CREB1 / RFU, DNAJC13 / Fold change vs veh, DNAJC13 / RFU, GNAQ / Fold change vs veh, GNAQ / RFU, CDK5R1 / Fold change vs veh, CDK5R1 / RFU, ZRANB3 / Fold change vs veh, ZRANB3 / RFU, CUL4A / Fold change vs veh, CUL4A / RFU, CCNY / Fold change vs veh, CCNY / RFU, UFL1 / Fold change vs veh, UFL1 / RFU, COG3 / Fold change vs veh, COG3 / RFU, DIAPH2 / Fold change vs veh, DIAPH2 / RFU, SKA2 / Fold change vs veh, SKA2 / RFU, AFF3 / Fold change vs veh, AFF3 / RFU, LMF1 / Fold change vs veh, LMF1 / RFU, IPO11 / Fold change vs veh, IPO11 / RFU, DFFB / Fold change vs veh, DFFB / RFU, FOXP1 / Fold change vs veh, FOXP1 / RFU, CARD8 / Fold change vs veh, CARD8 / RFU, STRN3 / Fold change vs veh, STRN3 / RFU, ADK / Fold change vs veh, ADK / RFU, RASSF2 / Fold change vs veh, RASSF2 / RFU, WIPF1 / Fold change vs veh, WIPF1 / RFU, LARP1B / Fold change vs veh, LARP1B / RFU, RASA1 / Fold change vs veh, RASA1 / RFU, RB1 / Fold change vs veh, RB1 / RFU, PPFIA1 / Fold change vs veh, PPFIA1 / RFU, MAT2A / Fold change vs veh, MAT2A / RFU, CCT5 / Fold change vs veh, CCT5 / RFU, WDR92 / Fold change vs veh, WDR92 / RFU, CUX1 / Fold change vs veh, CUX1 / RFU, TTC7A / Fold change vs veh, TTC7A / RFU, TMEM135 / Fold change vs veh, TMEM135 / RFU, DEPTOR / Fold change vs veh, DEPTOR / RFU, CPM / Fold change vs veh, CPM / RFU, DNAJB6 / Fold change vs veh, DNAJB6 / RFU, CACNA2D3 / Fold change vs veh, CACNA2D3 / RFU, DTX4 / Fold change vs veh, DTX4 / RFU, TFCP2 / Fold change vs veh, TFCP2 / RFU, GMCL1 /// GMCL1P1 / Fold change vs veh, GMCL1 /// GMCL1P1 / RFU, AEBP2 / Fold change vs veh, AEBP2 / RFU, SNHG1 /// SNORD22 /// SNORD25 /// SNORD26 /// SNORD27 /// SNORD28 /// SNORD29 /// SNORD31 / Fold change vs veh, SNHG1 /// SNORD22 /// SNORD25 /// SNORD26 /// SNORD27 /// SNORD28 /// SNORD29 /// SNORD31 / Fold change (Aza/veh), C12orf56 (ProbeSet 11735607_a_at) / Fold change (ACY-1035/veh), C12orf56 (ProbeSet 11735607_a_at) / Fold change (Aza/veh), FGFR1OP (ProbeSet 11751329_s_at) / Fold change (ACY-1035/veh), FGFR1OP (ProbeSet 11751329_s_at) / Fold change (Aza/veh), VPS36 (ProbeSet 11739960_a_at) / Fold change (ACY-1035/veh), VPS36 (ProbeSet 11739960_a_at) / RFU SYPL1 (11715823_x_at) / Fold change /veh SYPL1 (11715823_x_at) / RFU IGFBP7 (11715501_s_at) / Fold change /veh IGFBP7 (11715501_s_at) / RFU REEP3 (11722064_at) / Fold change /veh REEP3 (11722064_at) / RFU IGLL1 (11728026_x_at) / Fold change /veh IGLL1 (11728026_x_at): dose or concentration left out as unconfirmed
Details: MV-4-11 cells, 48 hours

Nc1ccc(-c2cccs2)cc1NC(=O)c1ccc2c(c1)cc(C1CC1)n2CCN1CCOCC1 [ACY-1035]
RFU CNN1 (11734310_a_at): 26.40 RFU
